Four compounds from ChEMBL document CHEMBL1124940, “N-[(arylmethoxy)phenyl] carboxylic acids, hydroxamic acids, tetrazoles, and sulfonyl carboxamides. Potent orally active leukotriene D4 antagonists of novel structure” (J Med Chem, 1990) can be followed below.

Common to all, as to assay type: functional
For test [1], the system named is Cavia porcellus. Nature of the test: Inhibition of ovalbumin induced bronchoconstriction in Guinea pig, compound injected intraduodenally at a dose of 10 mg/kg. The note with it: route intraduodenal.
The test system of test [2] is Cavia porcellus. Nature of the test: Inhibition of ovalbumin induced bronchoconstriction in Guinea pig, compound injected intragastrically, dose is 25 mg/kg. The note with it: po, route intragastric.
Test [3] relates to Cavia porcellus. The test is described as follows: Inhibition of LTD4-induced broncho constriction in Guinea pig, compound injected intraduodenally at a dose of 25 mg/kg. The note with it: route intraduodenal.
In test [4] the test system is Cavia porcellus. Nature of the test: Inhibition of LTD4-induced broncho constriction in Guinea pig after intraduodenal administration of a dose of 3 mg/kg.
The subject of test [5] is Cavia porcellus. The test is described as follows: Inhibition of ovalbumin induced bronchoconstriction in Guinea pig, compound injected intragastrically, dose is 10 mg/kg. To be noted: po, route intragastric.
The test system of test [6] is Cavia porcellus. The test is described as follows: Inhibition of ovalbumin induced bronchoconstriction in Guinea pig, compound injected intraduodenally at a dose of 25 mg/kg. The note with it: route intraduodenal.
In test [7] the test system is Cavia porcellus. The test is described as follows: Inhibition of LTD4-induced bronchoconstriction in Guinea pig after intragastrical administration of dose of 25 mg/kg. To be noted: po, route intragastric.
The test system of test [8] is Cavia porcellus. The test is described as follows: Inhibition of LTD4-induced bronchoconstriction in Guinea pig after intragastrical administration of dose of 3 mg/kg. The note with it: po, route intragastric.
The test system of test [9] is Cavia porcellus. The test is described as follows: Tested for the inhibition of LTD4-induced broncho constriction in Guinea pig; injected intraduodenally at a dose of 25 mg/kg. To be noted: route intraduodenal.
For test [10], the system named is Cavia porcellus. The test is described as follows: Tested for the inhibition of ovalbumin- induced bronchoconstriction in Guinea pig, injected intraduodenally, dose is 25 mg/kg. The note with it: route intraduodenal.
Test [11] concerns Cavia porcellus. Nature of the test: Tested for the inhibition of LTD4-induced bronchoconstriction in Guinea pig, injected intragastrically, dose of 10 mg/kg. The note with it: po, route intragastric.
The test system of test [12] is Cavia porcellus. Nature of the test: Tested for the inhibition of LTD4-induced bronchoconstriction in Guinea pig, injected intraduodenally, dose is 3 mg/kg. The note with it: route intraduodenal.
For test [13], the system named is Cavia porcellus. The test is described as follows: Tested for the inhibition of LTD4-induced broncho constriction in Guinea pig, injected intraduodenally at a dose of 25 mg/kg. To be noted: route intraduodenal.
The subject of test [14] is Cavia porcellus. The test is described as follows: Tested for the inhibition of ovalbumin- induced bronchoconstriction in Guinea pig, injected intragastrically, dose of 10 mg/kg. The note with it: po, route intragastric.
Test [15] deals with Cavia porcellus. Nature of the test: Tested for the inhibition of LTD4-induced bronchoconstriction in Guinea pig, injected intragastrically, dose of 3 mg/kg. The note with it: po, route intragastric.
In test [16] the test system is Cavia porcellus. The test is described as follows: Tested for the inhibition of ovalbumin- induced bronchoconstriction in Guinea pig, injected intragastrically, dose of 25 mg/kg. To be noted: po, route intragastric.
The subject of test [17] is Cavia porcellus. The test is described as follows: Tested for the inhibition of ovalbumin- induced bronchoconstriction in Guinea pig, injected intraduodenally, dose of 3 mg/kg. To be noted: route intraduodenal.
The test system of test [18] is Cavia porcellus. Nature of the test: Inhibition of LTD4-induced broncho constriction in Guinea pig after intragastrical administration of a dose of 25 mg/kg. To be noted: po, route intragastric.
Test [19] has as its system Cavia porcellus. The test is described as follows: Inhibition of LTD4-induced broncho constriction in Guinea pig after intraduodenal administration of a dose of 25 mg/kg.
Test [20] concerns Cavia porcellus. The test is described as follows: Tested for the inhibition of LTD4-induced bronchoconstriction in Guinea pig, compound injected intragastrically at dose of 3 mg/kg. To be noted: po, route intragastric.

Usually inhibition in vivo stands for the drop in the measured response relative to a control, in per cent. For `CONC(=O)c1cccc(OCc2ccc3ccccc3n2)c1`, the inhibition in vivo at 10 mg/kg in the test with Cavia porcellus [1] came to 84%; with Cavia porcellus [5] it was 9%. The inhibition in vivo at 25 mg/kg with Cavia porcellus [2] is less than -2%; in the test with Cavia porcellus [3], 93%; with Cavia porcellus [6], less than 77%; in the test with Cavia porcellus [7], less than 72%. Moreover, the inhibition in vivo at 3 mg/kg is 64% in the test with Cavia porcellus [4] and -6% in the test with Cavia porcellus [8].
With `Cc1ccc(S(=O)(=O)NC(=O)c2ccc(OCc3ccc4ccccc4n3)cc2)cc1`, in the test on Cavia porcellus [9], the inhibition in vivo at 25 mg/kg is less than -9%.
Turning to `Cc1ccc(S(=O)(=O)NC(=O)Cc2cccc(OCc3nc4ccccc4s3)c2)cc1`, the inhibition in vivo at 25 mg/kg is 78% in the test with Cavia porcellus [10], less than 97% in the test with Cavia porcellus [13] and less than 70% in the test on Cavia porcellus [16]. The values for the inhibition in vivo at 10 mg/kg with Cavia porcellus [11] and in the test with Cavia porcellus [14] were less than 55% and 42%, respectively. For the same compound, the inhibition in vivo at 3 mg/kg amounted to 83% with Cavia porcellus [12], 80% in the test on Cavia porcellus [15] and 44% in the test with Cavia porcellus [17].
Take `O=C(Cc1cccc(OCc2ccc3ccccc3n2)c1)NOCc1ccccc1`: the inhibition in vivo at 25 mg/kg is less than 67% with Cavia porcellus [18] and less than 26% in the test on Cavia porcellus [19]. For the same compound, the inhibition in vivo at 3 mg/kg with Cavia porcellus [20] stood at 18%.
